From publication PMC5040747, “Preparation and Evaluation of a Novel Class of Amphiphilic Amines as Antitumor Agents and Nanocarriers for Bioactive Molecules” (Pharmaceutical Research, 2016)
Read-outs that look alike come from different tables or passages of the source.

Key:
SK-N-AS = assay: MTT cell proliferation assay, SK-N-AS; format: cell-based; conditions: Homo sapiens, Neuroblastoma, read-out: Cell killing activity IC50
Description: (§1) Cells were plated in 96-well tissue culture plates at a density of 1 × 10^3 cells/well, allowed to attach 24 h, and then left untreated or treated with growth medium containing different concentrations of the tested RCn compounds previously dissolved in PBS. After different time periods the cell vitality was determined by MTT assay according to the manufacture’s instruction (Promega). Results are reported as the micromolar concentration of RCn reducing cell survival to 50% (IC50).

[1] = tested on: Human Gingival Fibroblasts; assay: MTT cell proliferation assay, normal fibroblasts; format: cell-based; conditions: Fibroblast, normal cells, read-out: Cell killing activity IC50
Description: as §1

A673 [2] = assay: MTT cell proliferation assay, A673; format: cell-based; conditions: Homo sapiens, A673, Ewing's Sarcoma, read-out: Cell killing activity IC50
Description: as §1

HUVEC = assay: MTT cell proliferation assay, HUVEC; format: cell-based; conditions: Homo sapiens, normal cells, read-out: Cell killing activity IC50
Description: as §1

A549 = assay: MTT cell proliferation assay, A549; format: cell-based; conditions: Homo sapiens, A549, adult tumor cell line, read-out: Cell killing activity IC50
Description: as §1

S462TY = assay: MTT cell proliferation assay, S462TY; format: cell-based; conditions: Homo sapiens, Malignant Peripheral Nerve Sheath Tumor, read-out: Cell killing activity IC50
Description: as §1

[3] = Pilot pharmacokinetic study in mice; format: in vivo, mouse; conditions: for AUC(0-t): read-out: AUC0-24
Description: To establish a standard assay for RC16 detection and the half-life of RC16 in murine blood, a basic pilot pharmacokinetic study was performed using 1 animal per timepoint. Non-tumor bearing, female, athymic nude mice were treated with RC16 by i.v. or p.o.at doses of 1 mg/kg and 2 mg/kg, respectively. At 2, 4, 6, 12, 24 and 48 h post RC16 administration, a single mouse was anesthetized in an induction chamber with 5.0% isoflurane and an O2 flow rate of 0.8 L/min. Each mouse was transferred to a nose cone supplying 5.0% isoflurane with a O2 flow rate of 0.8 L/min. After confirming sedation by testing hind footpads, each mouse was subjected to exsanguination by cardiac puncture. Blood samples were collected in BD Microtainers (BD, Franklin Lakes, NJ). Plasma was separated by centrifugation at 2000×g for 10 min at 4°C and stored at −80°C until analysis. The RC16 concentration in plasma was determined by liquid LC-MS/MS.
Chromatographic separation was achieved using a Thermo Scientific Accela UHPLC system with HTS PAL autosampler and an Agilent ZORBAX Extend C18 column (50 × 2.1 mm I.D, 3.5 μm particle size) with a C18 guard cartridge maintained at 35°C. A 6.0 min linear gradient program with water/0.3% formic acid as mobile phase A and acetonitrile/0.3% formic acid as mobile phase B at a constant flow rate of 400 μL/min was applied for elution: 0.0 min 25% B, 1.0 min 25% B, 3.0 min 95% B, 4.5 min 95% B, 4.6 min 25% B and 6.0 min 25% B. The autosampler sample draw was set to 4°C, and a divert valve was used (0.0–2.0 min) to prevent early eluting compounds from entering the MS. Selective reaction monitoring with unit resolution was used for MS detection under positive mode. Transition channels from the protonated molecular ion to selected product ion were 377.33 > 153.15 for RC16 and 251.20 > 153.15 for internal standard RC7, respectively. Parameters optimized with a direct infusion of analyte and IS using a syringe pump were as follows: spray voltage, 5000 V; sheath gas and auxiliary gas, 25 and 15 (arbitrary unit), respectively; capillary temperature, 325°C; collision gas pressure, 1.5mTorr and skimmer offset, 10 eV. Tube lens offset was 100 eV for both RC16 and RC7, respectively. Scan time was 0.03 s. Collision energies were 40 eV for RC16 and 33 eV for RC7. Thermo Scientific LCQuan software was employed for system control and data processing.

[4] = Maximum tolerated dose in mice; conditions: female, mouse, in vivo; single intravenous injection, non-tumor bearing athymic nude mice
Description: To determine the MTD, a standard assay dose escalation study was performed. Non-tumor bearing, female, athymic nude mice were injected once with RC16 by the tail vein starting with 0.5 mg/kg. The doses were escalated by 0.25 mg/kg until MTD was achieved. Following convention, each dose was tested on a cohort of 5 mice in individual independent experiments. MTD was defined as the highest dose that could be given resulting in no drug-related moribund state or death or body weight loss ≥ 20% in the first 7 days. Other signs of toxicity such as unusual mouse behavior, lack of movement and poor posture were also monitored. Mice were weighed and observed 3 times per week for any signs of toxicity.

A673 [5] = assay: Intracellular ROS assay; format: cell-based, human; conditions: A673, 5 μM RC16, 15 h
Description: Intracellular ROS were measured by OxiSelect™ Intracellular ROS Assay Kit (Cell Biolabs) following the manufacturer’s instructions. Briefly, cells (1 × 10^5/mL) were washed twice in PBS and incubated with 5 μM 2’,7’-dichlorodihydrofluorescein diacetate (H2DCFDA) 1 h at 37°C. After PBS washes, the medium was changed with a new one containing 5 μM RC16 for 15 h and 24 h. At the end of the treatment samples were washed with PBS and a mixture of medium and cell lysis buffer (1:1) was added for 5 min at 37°C. The fluorescence was read by a fluorimetric plate reader (Spectra max M2, Molecular Device). Excitation wavelength was 480 nm and emission wavelength was 530 nm.

[6] = tested on: Human Foreskin Keratinocytes (differentiated); assay: MTT cell proliferation assay, normal keratinocytes; format: cell-based; conditions: Keratinocyte, normal cells, read-out: Cell killing activity IC50
Description: as §1

SMILES: CCCCCCCCCCCCCCC1CN2CCCN3CCCCCC132 (stereo not shown) [RC16, 2-tetradecyl-4,8-diazatricyclo[6.5.0.0^1,^4]tridecane]
- IC50 (SK-N-AS; 24 h): 0.88 µM
- IC50 (SK-N-AS; 48 h): 0.67 µM
- IC50 ([1]; 24 h): 11.8 µM
- IC50 ([1]; 48 h): 10.5 µM
- IC50 (A673 [2]; 24 h): 0.8 µM
- IC50 (A673 [2]; 48 h): 0.65 µM
- IC50 (HUVEC; 24 h): 10.6 µM
- IC50 (HUVEC; 48 h): 9.65 µM
- IC50 (A549; 24 h): 6.62 µM
- IC50 (A549; 48 h): 5.58 µM
- IC50 (S462TY; 24 h): 1.11 µM
- IC50 (S462TY; 48 h): 0.76 µM
- half-life ([3]; female, athymic nude, mouse, plasma, iv, 1 mg/kg i.v., nude mice, read-out: Half-life (converted)): 5.4 h
- bioavailability ([3]; female, athymic nude, mouse, plasma, po, 2 mg/kg, estimated from pilot pharmacokinetic data): ~6%
- Cmax ([3]; female, athymic nude, mouse, plasma, 2 mg/kg oral, at 4 h, nude mice, read-out: Maximum observed plasma concentration (Cmax)): 12.5 ng/mL
- half-life ([3]; female, athymic nude, mouse, plasma, 2 mg/kg oral, non-compartmental analysis, nude mice, read-out: Apparent half-life (converted)): 5.2 h
- AUC(0-t) ([3]; female, athymic nude, mouse, plasma, IV, 1 mg/kg, nude mice): 1390 ng·h/mL
- Cmax ([3]; female, athymic nude, mouse, plasma, IV, 1 mg/kg, nude mice, read-out: Cmax): 153 ng/mL
- AUC(0-t) ([3]; female, athymic nude, mouse, plasma, PO, 2 mg/kg, nude mice): 160 ng·h/mL
- concentration at 2 h ([3]; female, athymic nude, plasma, intravenous, 1 mg/kg i.v., 2 h, nude mice, 1 mouse per time point): 153 ng/mL
- concentration at 24 h ([3]; female, athymic nude, plasma, intravenous, 1 mg/kg i.v., nude mice, 1 mouse per time point): 11.4 ng/mL
- concentration at 24 h ([3]; female, athymic nude, plasma, 2 mg/kg oral, nude mice, 1 mouse per time point): 0.5 ng/mL
- concentration at 48 h ([3]; female, athymic nude, plasma, 2 mg/kg oral, 48 h, nude mice, 1 mouse per time point): 4.6 ng/mL
- Achieved plasma concentrations ([3]; i.v. dose of 1 mg/kg): 150 to 200 ng/mL
- MTD at 7 days [4]: 4 mg/kg
- Intracellular ROS levels relative to control (A673 [5]): more than twice the control values
- IC50 ([6]; 24 h): 15.2 µM
- IC50 ([6]; 48 h): 13.5 µM
